Columns and labels:
C8166 [1] = test: Antiproliferative activity against C8166 cell line by MTT assay; format: functional; settings: Homo sapiens, read-out: TC50 (the source's name)
MT4 [2] = test: Selectivity index, TC50 for MT4 cell line/EC50 for HIV1; format: functional
[3] = test system: Human immunodeficiency virus 1; test: Antiviral activity against HIV1 K103N-Y181C mutant in MT4 cell line; format: functional, organism-based; settings: Human immunodeficiency virus 1, MT4
[4] = test system: Human immunodeficiency virus 1; test: Antiviral activity against HIV1 in C8166 cell line; format: functional, organism-based; settings: Human immunodeficiency virus 1, C8166
[5] = test system: Human immunodeficiency virus 1; test: Antiviral activity against HIV1 3B in MT4 cell line; format: functional, organism-based; settings: Human immunodeficiency virus 1, 3B
C8166 [6] = test: Selectivity index, TC50 for C8166 cell line/EC50 for HIV1; format: functional
[7] = test system: Human immunodeficiency virus 1; test: Antiviral activity against HIV1 Y181C mutant in MT4 cell line; format: functional, organism-based; settings: Human immunodeficiency virus 1, MT4
[8] = test system: Human immunodeficiency virus 1; test: Antiviral activity against HIV1 in MT4 cell line; format: functional, organism-based; settings: Human immunodeficiency virus 1, MT4; read-out: EC50
MT4 [9] = test: Cytotoxicity against MT4 cell line by MTT assay; format: functional; settings: Homo sapiens, read-out: TC50 (the source's name)
[10] = test system: Human immunodeficiency virus 1; test: Antiviral activity against HIV1; format: functional, organism-based
[11] = test system: Human immunodeficiency virus; test: Activity against HIV-AB1 assessed by inhibition of p24 production in human lymphocytes; format: functional, organism-based; settings: Human immunodeficiency virus 1
[12] = test system: Human immunodeficiency virus; test: Activity against HIV-112 assessed by inhibition of p24 production in human lymphocytes; format: functional, organism-based; settings: Human immunodeficiency virus 1
[13] = test system: Human immunodeficiency virus 1; test: Activity against HIV1 3B assessed by inhibition of p24 production in human lymphocytes; format: functional, organism-based; settings: Human immunodeficiency virus 1, 3B
Lymphocyte = test: Cytotoxicity against human lymphocytes; format: functional; settings: read-out: TC50 (the source's name)

| SMILES | EC50 [10] | also measured |
| --- | --- | --- |
| Cc1cc(C)cc(S(=O)(=O)c2c(C(=O)NCC(N)=O)[nH]c3ccc(Cl)cc23)c1 |  | CC50 (C8166 [1]): > 100 µM; Selectivity index (MT4 [2]): 4500; EC50 [3]: 1200 nM; EC50 [4]: 20 nM; EC50 [5]: 10 nM; Selectivity index (C8166 [6]): >5000; EC50 [7]: 50 nM; EC50 [8]: 10 nM; CC50 (MT4 [9]): 45 µM |
| Cc1cc(C)cc(S(=O)(=O)c2c(C(=O)NNCCO)[nH]c3ccc(Cl)cc23)c1 | 1 nM |  |
| NC(=O)c1cc2cc(Cl)ccc2n1S(=O)(=O)c1ccccc1 | 66600 nM |  |
| Cc1ccc(S(=O)(=O)c2c(C(=O)NCCO)[nH]c3ccc(Cl)cc23)cc1 | 43 nM |  |
| Cc1cc(C)cc(Sc2c(C(=O)NNCCO)[nH]c3ccc(Cl)cc23)c1 | 30 nM |  |
| CCOC(=O)c1cn(S(=O)(=O)c2ccccc2)c2ccccc12 | > 32000 nM |  |
| Cc1cccc(S(=O)(=O)c2c(C(=O)NNCCO)[nH]c3ccc(Cl)cc23)c1 | 7 nM |  |
| NNC(=O)c1[nH]c2ccc(Cl)cc2c1S(=O)(=O)c1ccc(Cl)cc1 | 190 nM |  |
| O=[N+]([O-])c1ccc(Cl)c(-n2ccc3ccccc32)c1 | 5220 nM |  |
| CC(C)(C)c1ccc(Sc2c(C(N)=O)[nH]c3ccc(Cl)cc23)cc1 | 8000 nM |  |
| Cc1ccc(S(=O)(=O)c2c(C(=O)NCCO)[nH]c3ccc(Cl)cc23)c(C)c1 | 8 nM |  |
| CC(C)OC(=O)c1cn(S(=O)(=O)c2ccccc2)c2ccc(Cl)cc12 | > 200000 nM |  |
| CCOC(=O)c1cc2cc(Cl)ccc2n1S(=O)(=O)c1cc(Cl)ccc1N | 8300 nM |  |
| CCOC(=O)c1cc2ccccc2n1S(=O)(=O)c1cc(Cl)ccc1[N+](=O)[O-] | > 100000 nM |  |
| O=C(NCCO)c1[nH]c2ccc(Cl)cc2c1Sc1ccccc1 | 40 nM |  |
| O=C(NNCCO)c1[nH]c2ccc(Cl)cc2c1S(=O)(=O)c1ccccc1 | 10 nM |  |
| NNC(=O)c1[nH]c2ccc(Cl)cc2c1Sc1ccc(F)cc1 | 5000 nM |  |
| Cc1ccc(Sc2c(C(=O)NNCCO)[nH]c3ccc(Cl)cc23)cc1 | 600 nM |  |
| Cc1cccc(Sc2c(C(=O)NCCO)[nH]c3ccc(Cl)cc23)c1 | 80 nM |  |
| NC(=O)c1[nH]c2ccc(Cl)cc2c1S(=O)(=O)c1ccccc1 [L-737126] | 1 nM |  |
| CCOC(=O)c1[nH]c2ccccc2c1Sc1ccccc1N | > 200000 nM |  |

| SMILES | EC50 [10] | also measured |
| --- | --- | --- |
| Cc1cccc(S(=O)(=O)c2c(C(N)=O)[nH]c3ccc(Cl)cc23)c1 | 1 nM |  |
| CCOC(=O)c1cc2cc(Cl)ccc2n1S(=O)(=O)c1ccc(C)cc1 | > 200000 nM |  |
| Cc1ccc(S(=O)(=O)c2c(C(=O)NNCCO)[nH]c3ccc(Cl)cc23)cc1 | 40 nM |  |
| CCOC(=O)c1[nH]c2ccccc2c1Sc1cc(Cl)ccc1N | ≥ 200000 nM |  |
| CC(C)c1ccc(S(=O)(=O)c2c(C(N)=O)[nH]c3ccc(Cl)cc23)cc1 | 80 nM |  |
| CCOC(=O)c1cn(S(=O)(=O)c2ccccc2)c2ccc(Cl)cc12 | > 42000 nM |  |
| O=C1Nc2ccc(Cl)cc2[C@@](C#CC2CC2)(C(F)(F)F)O1 [EFAVIRENZ] |  | EC50 [11]: > 20 µM; EC50 [12]: > 20 µM; EC50 [13]: 7 nM; CC50 (Lymphocyte): > 100 µM |
| Cc1cc(C)cc(S(=O)(=O)c2c(C(N)=O)[nH]c3ccc(Br)cc23)c1 | 2 nM |  |
| Nc1ccc(Cl)cc1-n1ccc2ccccc21 | 6000 nM |  |
| Cc1ccc(S(=O)(=O)c2c(C(=O)NN)[nH]c3ccc(Cl)cc23)cc1 | 50 nM |  |
| Cc1cccc(Sc2c(C(=O)NCCO)[nH]c3ccc(Cl)cc23)c1C | 100 nM |  |
| Cc1cc(C)cc(Sc2c(C(=O)NCCO)[nH]c3ccc(Cl)cc23)c1 | 12 nM |  |
| Cc1ccccc1Sc1c(C(=O)NCCO)[nH]c2ccc(Cl)cc12 | 50 nM |  |
| Cc1ccccc1Sc1c(C(N)=O)[nH]c2ccc(Cl)cc12 | 300 nM |  |
| NC(=O)c1[nH]c2ccc(Cl)cc2c1S(=O)(=O)c1c(Cl)cccc1Cl | 100 nM |  |
| CCOC(=O)c1cc2cc(Cl)ccc2n1S(=O)(=O)c1cc(Cl)ccc1[N+](=O)[O-] | > 31000 nM |  |
| NNC(=O)c1[nH]c2ccc(Cl)cc2c1S(=O)(=O)c1cc(Cl)ccc1N | 300 nM |  |
| NC(=O)c1[nH]c2ccc(Cl)cc2c1S(=O)(=O)c1cc(Cl)ccc1N | 40 nM |  |
| Cc1ccccc1S(=O)(=O)c1c(C(=O)NCCO)[nH]c2ccc(Cl)cc12 | 31 nM |  |
| Cc1ccc(Sc2c(C(=O)NNCCO)[nH]c3ccc(Cl)cc23)c(C)c1 | 1200 nM |  |
| Cc1cc(C)cc(S(=O)(=O)c2c(C(N)=O)[nH]c3ccc(Cl)cc23)c1 | 4 nM |  |

| SMILES | EC50 [10] | also measured |
| --- | --- | --- |
| Cc1ccccc1Sc1c(C(=O)NNCCO)[nH]c2ccc(Cl)cc12 | 100 nM |  |
| NC(=O)c1[nH]c2ccccc2c1S(=O)(=O)c1cc(Cl)ccc1N | 300 nM |  |
| O=[N+]([O-])c1ccc(Cl)cc1-n1ccc2ccccc21 | 5400 nM |  |
| CCOC(=O)c1cc2cc(Cl)ccc2n1S(=O)(=O)c1ccc(Cl)cc1 | > 200000 nM |  |
| Cc1cccc(S(=O)(=O)c2c(C(=O)NCCO)[nH]c3ccc(Cl)cc23)c1 | 3 nM |  |
| NNC(=O)c1[nH]c2ccc(Cl)cc2c1Sc1cc(Cl)ccc1N | > 13000 nM |  |
| Nc1ccc(Cl)c(-n2ccc3ccccc32)c1 | 3820 nM |  |
| Cc1ccccc1S(=O)(=O)c1c(C(=O)NNCCO)[nH]c2ccc(Cl)cc12 | 50 nM |  |
| Cc1cc(C)cc(S(=O)(=O)c2c(C(=O)NCC(=O)NN)[nH]c3ccc(Cl)cc23)c1 |  | CC50 (C8166 [1]): > 100 µM; Selectivity index (MT4 [2]): >5000; EC50 [3]: 2600 nM; EC50 [4]: 20 nM; EC50 [5]: 20 nM; Selectivity index (C8166 [6]): >5000; EC50 [7]: 60 nM; EC50 [8]: 20 nM; CC50 (MT4 [9]): > 100 µM |
| O=S(=O)(c1ccccc1)n1ccc2ccccc21 | > 150000 nM |  |
| O=[N+]([O-])c1cc(Cl)ccc1-n1ccc2ccccc21 | 4800 nM |  |
| NNC(=O)c1[nH]c2ccc(Cl)cc2c1S(=O)(=O)c1ccc(F)cc1 | 320 nM |  |
| Cc1ccc(Sc2c(C(N)=O)[nH]c3ccc(Cl)cc23)cc1 | > 450 nM |  |
| CCOC(=O)c1cc2ccccc2n1S(=O)(=O)c1ccccc1[N+](=O)[O-] | 1800 nM |  |
| NNC(=O)c1[nH]c2ccc(Cl)cc2c1Sc1ccccc1 | 550 nM |  |
| Cc1ccc(S(=O)(=O)c2c(C(N)=O)[nH]c3ccc(Cl)cc23)cc1 | 3 nM |  |
| O=C(NNCCO)c1[nH]c2ccc(Cl)cc2c1Sc1ccccc1 | 200 nM |  |
| NNC(=O)c1[nH]c2ccccc2c1S(=O)(=O)c1ccccc1 | 530 nM |  |
| NC(=O)c1[nH]c2ccc(Cl)cc2c1Sc1ccccc1 | 20 nM |  |
| NC(=O)c1[nH]c2ccccc2c1S(=O)(=O)c1ccccc1 | 180 nM |  |
| NNC(=O)c1[nH]c2ccc(Cl)cc2c1S(=O)(=O)c1ccccc1 | 10 nM |  |

| SMILES | EC50 [10] | also measured |
| --- | --- | --- |
| Cc1cc(C)cc(S(=O)(=O)c2c(C(=O)NCCO)[nH]c3ccc(Cl)cc23)c1 | 0.8 nM |  |
| Cc1ccc(S(=O)(=O)c2c(C(=O)NNCCO)[nH]c3ccc(Cl)cc23)c(C)c1 | 80 nM |  |
| CCOC(=O)c1[nH]c2ccccc2c1Sc1ccccc1 | 1400 nM |  |
| Cc1cc(C)cc(S(=O)(=O)c2c(C(=O)NN)[nH]c3ccc(Cl)cc23)c1 | 130 nM |  |
| Nc1cc(Cl)ccc1-n1ccc2ccccc21 | 4130 nM |  |
| Cc1ccc(Sc2c(C(=O)NCCO)[nH]c3ccc(Cl)cc23)cc1 | 120 nM |  |
| NNC(=O)c1cc2ccccc2n1S(=O)(=O)c1ccccc1 | > 200000 nM |  |
| CCOC(=O)c1[nH]c2ccc(Cl)cc2c1S(=O)(=O)c1ccccc1N | > 200000 nM |  |
| NC(=O)c1[nH]c2ccccc2c1Sc1cc(Cl)ccc1N | 9000 nM |  |
| Cc1cc(C)cc(Sc2c(C(N)=O)[nH]c3ccc(Cl)cc23)c1 | 6 nM |  |
| O=S(=O)(c1ccccc1)n1ccc2cc(Cl)ccc21 | > 75000 nM |  |
| CCOC(=O)c1cc2cc(Cl)ccc2n1S(=O)(=O)c1ccccc1 | > 200000 nM |  |
| Nc1ccccc1-n1ccc2ccccc21 | 4960 nM |  |
| NNC(=O)c1[nH]c2ccc(Cl)cc2c1Sc1ccc(Cl)cc1 | 10000 nM |  |
| O=[N+]([O-])c1ccccc1-n1ccc2ccccc21 | 5300 nM |  |
| CCOC(=O)c1cc2ccccc2n1S(=O)(=O)c1ccc(Cl)cc1 | > 100000 nM |  |
| O=C(NCCO)c1[nH]c2ccc(Cl)cc2c1S(=O)(=O)c1ccccc1 | 1 nM |  |
| CC(C)OC(=O)c1cn(S(=O)(=O)c2ccccc2)c2ccccc12 | > 54000 nM |  |
| NC(=O)c1cn(S(=O)(=O)c2ccccc2)c2ccccc12 | > 32000 nM |  |
| Cc1ccc(S(=O)(=O)c2c(C(N)=O)[nH]c3ccc(Cl)cc23)c(C)c1 | 4 nM |  |
| Cc1ccccc1S(=O)(=O)c1c(C(N)=O)[nH]c2ccc(Cl)cc12 | 1 nM |  |

Reference: ChEMBL document CHEMBL1147813, “Design, molecular modeling, synthesis, and anti-HIV-1 activity of new indolyl aryl sulfones. Novel derivatives of the indole-2-carboxamide” (J Med Chem, 2006)
